Common to all, as to assay type: in vivo, mouse
Common to all, as to conditions: agent given prior to neutrophil-activating therapy

For one experiment, the system named is LTB4. Description: LTB4 ELISA of B16 tumors. The procedure:
LTB4 ELISA. Tumors were dissected away from surrounding fat 24 hours post-treatment and lysed in PBS using 3 mm zirconium beads (Benchmark Scientific) in the BeadBug Microtube Homogenizer (Benchmark Scientific) for 2 cycles of 45 seconds at 3000 rpm. Crude lysate was centrifuged for 15 minutes at 16000×g at 4° C. to obtain clarified lysate. Clarified lysate was deproteinized by ethanol precipitation by adding 4 volumes of 100% ethanol, incubating on ice for 5 minutes, and centrifuging for 10 minutes at 3000×g at 4° C. Deproteinized supernatant was transferred to a new tube, ethanol was removed by evaporation at room temperature, and samples were brought to the appropriate volume in ELISA assay buffer. LTB4 content was determined with the Leukotriene B4 ELISA kit (Cayman Chemical 520111) according to the manufacturer's instructions and read with a Victor X4 fluorescence microplate reader (PerkinElmer).
Ex vivo neutrophil LTB4 assay. B16 tumors were harvested from mice 12 hours after treatment with TNF+anti-CD40+anti-gp75 and digested with collagenase IV and DNase I as described above. […] Following the incubation, the supernatant was collected, centrifuged to remove cells and debris, and analyzed for LTB4 using the Leukotriene B4 ELISA kit (Cayman Chemical 520111) as described above.

The next experiment concerns neutrophils. Description: Flow cytometry of neutrophils in B16 tumors and blood. The procedure: Tumors were digested with collagenase IV and DNase I as described above. Following digestion, tissue was mashed through a […] cell strainer (Falcon), washed, red blood cells were lysed with ACK buffer for 1 minute, and cells were washed again prior to antibody staining. Blood was harvested into PBS plus 20 mM EDTA by cardiac puncture or retro-orbital bleed, lysed in ACK buffer for 5 minutes, and washed prior to antibody staining. Bone marrow was harvested by grinding the femur and tibia in a mortar and pestle and mashing through a […] strainer (Falcon), or by flushing femurs with a syringe and needle, then lysed in ACK buffer for 5 minutes and washed prior to antibody staining. Spleens were harvested by mashing through a […] cell strainer (Falcon), then lysed in ACK buffer for 5 minutes and washed prior to antibody staining.
Live cells were stained with antibodies on ice for 20 minutes in FACS buffer (HBSS 1% BSA 5 mM EDTA) with Brilliant Stain Buffer Plus (BD). Following staining, cells were washed twice in FACS buffer and resuspended in 1 μg/ml DAPI plus AccuCount Fluorescent Particles (Spherotech) for absolute count determination. In some experiments, live cells were stained with Live/Dead Fixable Blue Stain (Invitrogen) in HBSS on ice for 20 minutes prior to antibody staining, and DAPI was not used. […]

Another experiment relates to B16 tumors. Description: TUNEL staining of cell death in B16 tumors. On the procedure:
Tumors were dissected away from surrounding fat, fixed in 2% paraformaldehyde for 2 hours at 4° C., equilibrated in a 30% sucrose solution at 4° C., and embedded and frozen in O.C.T. Compound (Tissue-Tek). Slides were cut to […] and blocked with 1% BSA and 10% serum matched to the secondary antibody species. The following antibodies were used for immunofluorescence: PE anti-Ly6G (clone 1A8, BioLegend), DyLight 650 anti-gp75 (clone TA99, Bio X Cell, labeled using DyLight 650 NHS Ester (Thermo Scientific)), fluorescein anti-gp75 (clone TA99, Bio X Cell, labeled using NHS-Fluorescein (Thermo Scientific)), FITC anti-DNA/RNA damage (clone 15A3, recognizing 8-hydroxy-2′-deoxyguanosine/8-oxo-7,8-dihydroguanine/8-oxo-7,8-dihydroguanosine, Abcam), and AF647 anti-C3 (clone 11H9, Novus Biologicals). DAPI (Invitrogen) was stained at 1 μg/ml. FITC/fluorescein signal was amplified using AF488 anti-FITC (ThermoFisher Scientific), and PE was amplified using biotin anti-PE (clone PE001, BioLegend) followed by DyLight 594 streptavidin (BioLegend) or DyLight 649 streptavidin (BioLegend). Prior to use of biotinylated antibodies, endogenous biotin was blocked using the Avidin/Biotin Blocking Kit (Vector Laboratories). Prior to DNA/RNA damage staining, sections were permeabilized with 0.1% Triton X-100 in 0.1% sodium citrate. TUNEL (Terminal deoxynucleotidyl transferase dUTP nick end labeling) staining was performed using the In Situ Cell Death Detection Kit, TMR Red (Roche) according to the manufacturer's instructions. […] All parameters that were quantified were acquired with identical microscope settings and adjusted identically in Photoshop, and all adjustments were applied equally across the entire tumor. Quantification was performed in ImageJ, using the wand tool on the overlaid multichannel image to draw a border around the tumor and then measuring the percent area within that border with signal for the channel of the marker quantified.

Regarding `N#Cc1cc(-c2n[nH]c(-c3ccncc3)n2)ccn1` [topiroxostat], the “effect of agent on LTB4 production” value with LTB4 was “did not prevent”. The “effect of agent on treatment-induced neutrophil tumor infiltration” value with neutrophils was “did not prevent neutrophil infiltration”. Besides, the “effect of agent on treatment-induced tumor cell death” value with B16 tumors is on record as “reduced cell death”.

The values above are taken from patent US20250263496A1, “Neutrophil-Activating Therapy for the Treatment of Cancer” (The Board of Trustees of the Leland Stanford Junior …, priority 2024, published 2025).
